pIC50: −log10 of the molar value. “And” between values parts separate entries of the source, which are not always exact repeats. Equal entries are not always repeated. Where two headings read alike, the source gives them in different places.
What was measured:
dopamine receptor 1 = dopamine receptor 1 (Homo sapiens, UniProt P21728); experiment: In vitro safety: off-target receptor binding and enzyme assays, D1; settings: in vitro safety panel
Procedure: (§1) A range of off-target receptor binding assays and enzyme assays were carried out using conventional methods available in the art.

CYP3A4 [1] = molecular target: T1, CYP3A4 (Homo sapiens, UniProt P08684); experiment: Inhibition of CYP enzymes in human liver microsomes (HLM), CYP3A4 (midazolam and testosterone); settings: IC50 shift 0 vs 30 min preincubation (TDI ratio)
T1 sequence (P08684 whole entry): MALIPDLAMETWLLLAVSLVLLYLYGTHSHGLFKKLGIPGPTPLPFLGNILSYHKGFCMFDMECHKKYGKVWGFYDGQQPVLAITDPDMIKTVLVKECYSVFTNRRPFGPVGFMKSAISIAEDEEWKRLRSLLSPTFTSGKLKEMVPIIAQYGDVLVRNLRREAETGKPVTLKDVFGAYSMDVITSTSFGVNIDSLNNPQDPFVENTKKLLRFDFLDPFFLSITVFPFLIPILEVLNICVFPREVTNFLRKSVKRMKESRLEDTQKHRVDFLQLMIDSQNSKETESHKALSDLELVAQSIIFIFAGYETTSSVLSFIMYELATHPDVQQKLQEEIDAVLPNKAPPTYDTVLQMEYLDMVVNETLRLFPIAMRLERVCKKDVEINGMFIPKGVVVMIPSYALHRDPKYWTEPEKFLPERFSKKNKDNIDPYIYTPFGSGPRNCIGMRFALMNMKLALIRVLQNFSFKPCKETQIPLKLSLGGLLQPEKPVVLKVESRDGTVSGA

CYP1A2 = molecular target: T2, CYP1A2 (Homo sapiens, UniProt P05177); experiment: Inhibition of CYP enzymes in human liver microsomes (HLM), CYP1A2
T2 sequence (P05177 1-516): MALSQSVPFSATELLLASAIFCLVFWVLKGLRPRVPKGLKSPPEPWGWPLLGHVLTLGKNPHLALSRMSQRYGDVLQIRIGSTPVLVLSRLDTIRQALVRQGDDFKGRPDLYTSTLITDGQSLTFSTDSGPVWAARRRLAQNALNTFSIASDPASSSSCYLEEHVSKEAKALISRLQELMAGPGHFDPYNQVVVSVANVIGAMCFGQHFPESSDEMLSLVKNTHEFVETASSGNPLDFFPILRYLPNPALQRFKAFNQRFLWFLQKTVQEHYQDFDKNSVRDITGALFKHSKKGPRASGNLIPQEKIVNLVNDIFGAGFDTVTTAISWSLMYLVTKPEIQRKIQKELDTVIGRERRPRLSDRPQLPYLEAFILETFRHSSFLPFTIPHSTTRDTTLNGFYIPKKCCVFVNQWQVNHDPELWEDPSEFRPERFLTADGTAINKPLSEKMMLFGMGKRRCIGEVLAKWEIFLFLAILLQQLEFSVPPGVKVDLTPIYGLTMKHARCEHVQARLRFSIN

[2] = tested on: major human Cytochrome P450 (CYP) enzymes; experiment: HLM TDI panel, other CYP enzymes; format: in vitro ADME; settings: CYP enzymes other than 3A4 and 2D6
Mouse brain Aβ42 = experiment: Mouse brain Aβ42; format: in vivo; settings: for Mouse Aβ42: mouse brain; for B/P / Compound concentration in the Mouse Aβ42 study: mouse; for Compound concentration in the Mouse Aβ42 study: matrix not given
Procedure: Aβ42 IC50 was determined as described by Gillman, J. E. Starrett Jr., M. F. Parker, et al., “Discovery and evaluation of BMS-708163, a potent, and orally bioavailable gamma-secretase inhibitor”, ACS Medicinal Chemistry Letters, vol. 1., pp. 120-124, 2010. Mouse brain Aβ42 was determined as described by J. H. Toyn, X-A. Lin, M. W. Thompson et al., “Viable mouse gene ablations that robustly alter bran Abeta levels are are”, Biomed. Central Neuroscience, vol. 11, pp. 143, […].

CYP2D6 [3] = molecular target: T3, CYP2D6 (Homo sapiens, UniProt P10635); experiment: Inhibition of CYP enzymes in human liver microsomes (HLM), CYP2D6; settings: IC50 shift 0 vs 30 min preincubation (TDI ratio)
T3 sequence (P10635 whole entry): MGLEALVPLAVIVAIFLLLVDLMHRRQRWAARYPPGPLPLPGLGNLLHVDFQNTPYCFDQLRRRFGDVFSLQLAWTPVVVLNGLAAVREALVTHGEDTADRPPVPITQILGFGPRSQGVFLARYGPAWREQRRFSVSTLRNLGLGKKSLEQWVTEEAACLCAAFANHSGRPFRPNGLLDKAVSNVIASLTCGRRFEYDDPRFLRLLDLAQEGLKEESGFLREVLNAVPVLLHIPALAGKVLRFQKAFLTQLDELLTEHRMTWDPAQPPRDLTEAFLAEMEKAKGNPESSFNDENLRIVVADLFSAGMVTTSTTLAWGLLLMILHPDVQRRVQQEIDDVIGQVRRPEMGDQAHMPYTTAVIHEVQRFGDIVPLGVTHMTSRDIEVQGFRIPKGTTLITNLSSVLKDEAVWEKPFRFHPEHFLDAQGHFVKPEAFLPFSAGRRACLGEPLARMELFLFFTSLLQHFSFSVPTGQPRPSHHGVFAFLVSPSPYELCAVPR

CYP2C9 [4] = molecular target: T4, CYP2C9 (Homo sapiens, UniProt P11712); experiment: Inhibition of recombinant CYP enzymes (rCYP), CYP2C9; format: in vitro ADME; settings: average of two experiments, read-out: rCYP IC50 2C9
T4 sequence (P11712 whole entry): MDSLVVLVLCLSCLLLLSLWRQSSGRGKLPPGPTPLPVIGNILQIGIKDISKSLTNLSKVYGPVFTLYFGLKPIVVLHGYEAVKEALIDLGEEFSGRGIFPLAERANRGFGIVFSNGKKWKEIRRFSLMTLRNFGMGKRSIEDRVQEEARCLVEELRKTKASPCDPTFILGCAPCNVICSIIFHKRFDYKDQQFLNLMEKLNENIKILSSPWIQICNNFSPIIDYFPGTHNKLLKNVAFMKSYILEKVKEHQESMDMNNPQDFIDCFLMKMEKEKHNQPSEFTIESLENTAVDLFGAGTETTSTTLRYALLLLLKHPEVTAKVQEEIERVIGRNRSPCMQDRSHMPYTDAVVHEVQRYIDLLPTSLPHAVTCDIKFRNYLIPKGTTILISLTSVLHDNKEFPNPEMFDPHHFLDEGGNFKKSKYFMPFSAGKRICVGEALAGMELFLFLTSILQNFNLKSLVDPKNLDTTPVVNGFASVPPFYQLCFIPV

CYP2D6 [5] = molecular target: T3, CYP2D6; experiment: biochemical
dopamine transporter = dopamine transporter (Homo sapiens, UniProt Q01959); experiment: In vitro safety: off-target receptor binding and enzyme assays, DAT; settings: in vitro safety panel
Sequence of dopamine transporter (Q01959 whole entry): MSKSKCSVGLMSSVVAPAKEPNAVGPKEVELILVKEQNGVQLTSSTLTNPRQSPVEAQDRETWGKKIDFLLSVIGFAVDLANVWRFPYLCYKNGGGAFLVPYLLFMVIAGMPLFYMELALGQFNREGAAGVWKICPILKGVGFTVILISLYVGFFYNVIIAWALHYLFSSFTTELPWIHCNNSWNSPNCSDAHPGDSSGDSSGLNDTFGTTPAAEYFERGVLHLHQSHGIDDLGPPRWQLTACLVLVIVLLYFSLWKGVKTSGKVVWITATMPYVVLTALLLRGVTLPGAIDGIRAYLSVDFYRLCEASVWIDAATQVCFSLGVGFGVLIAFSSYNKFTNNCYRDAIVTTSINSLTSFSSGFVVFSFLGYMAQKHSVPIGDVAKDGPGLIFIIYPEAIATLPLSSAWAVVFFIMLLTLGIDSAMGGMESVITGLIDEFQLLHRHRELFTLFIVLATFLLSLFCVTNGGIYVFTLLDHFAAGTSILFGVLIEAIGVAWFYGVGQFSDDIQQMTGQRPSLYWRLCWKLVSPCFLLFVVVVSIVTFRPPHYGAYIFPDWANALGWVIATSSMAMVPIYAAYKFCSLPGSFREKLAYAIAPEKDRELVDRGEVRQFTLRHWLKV
Procedure: as §1

CYP2C19 = CYP2C19 (Homo sapiens, UniProt P33261); experiment: Inhibition of CYP enzymes in human liver microsomes (HLM), CYP2C19
Sequence of CYP2C19 (P33261 whole entry): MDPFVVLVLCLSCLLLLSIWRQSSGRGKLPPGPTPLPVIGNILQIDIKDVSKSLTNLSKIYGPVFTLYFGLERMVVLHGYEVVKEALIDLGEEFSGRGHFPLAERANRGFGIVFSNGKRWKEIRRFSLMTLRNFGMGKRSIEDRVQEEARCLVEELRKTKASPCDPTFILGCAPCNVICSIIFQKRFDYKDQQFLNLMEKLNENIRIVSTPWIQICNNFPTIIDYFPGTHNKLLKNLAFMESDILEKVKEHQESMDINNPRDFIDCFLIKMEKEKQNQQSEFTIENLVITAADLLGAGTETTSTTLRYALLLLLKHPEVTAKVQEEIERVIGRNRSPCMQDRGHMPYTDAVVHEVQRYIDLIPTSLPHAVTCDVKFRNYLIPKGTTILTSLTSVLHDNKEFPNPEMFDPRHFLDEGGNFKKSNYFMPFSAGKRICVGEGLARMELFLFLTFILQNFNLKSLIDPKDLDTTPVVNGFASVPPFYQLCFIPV

CYP3A4 [6] = molecular target: T1, CYP3A4; experiment: HLM CYP3A4 Inactivation Assay; format: in vitro ADME
CYP2C8 = molecular target: T5, CYP2C8 (Homo sapiens, UniProt P10632); experiment: Inhibition of CYP enzymes in human liver microsomes (HLM), CYP2C8; format: in vitro ADME
T5 sequence (P10632 1-490): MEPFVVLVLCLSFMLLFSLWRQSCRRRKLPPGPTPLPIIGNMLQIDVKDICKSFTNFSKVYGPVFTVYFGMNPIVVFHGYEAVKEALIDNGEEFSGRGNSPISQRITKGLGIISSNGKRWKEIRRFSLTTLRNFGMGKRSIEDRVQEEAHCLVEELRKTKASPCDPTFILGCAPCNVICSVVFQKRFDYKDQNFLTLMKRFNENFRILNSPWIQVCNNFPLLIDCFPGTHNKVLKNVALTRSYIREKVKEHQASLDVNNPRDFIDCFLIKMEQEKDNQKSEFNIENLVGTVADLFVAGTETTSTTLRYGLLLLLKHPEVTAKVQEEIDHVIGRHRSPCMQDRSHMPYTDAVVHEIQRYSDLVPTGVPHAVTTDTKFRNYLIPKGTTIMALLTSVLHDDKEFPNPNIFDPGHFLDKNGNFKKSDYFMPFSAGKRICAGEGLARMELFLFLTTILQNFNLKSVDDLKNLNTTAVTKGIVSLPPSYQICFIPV

CYP2D6 [7] = molecular target: T3, CYP2D6; experiment: Inhibition of recombinant CYP enzymes (rCYP), CYP2D6; format: in vitro ADME; settings: average of two experiments, read-out: rCYP IC50 2D6
CYP2C9 [8] = molecular target: T4, CYP2C9; experiment: Inhibition of CYP enzymes in human liver microsomes (HLM), CYP2C9; format: in vitro ADME
CYP3A4 [9] = molecular target: T1, CYP3A4; experiment: biochemical
[10] = HLM, IC50 shift 0 vs 30 min preincubation (TDI ratio)
[11] = HLM, all tested concentrations 0.31-20 μM, up to 25 min

Sequence of dopamine receptor 1 (P21728 whole entry): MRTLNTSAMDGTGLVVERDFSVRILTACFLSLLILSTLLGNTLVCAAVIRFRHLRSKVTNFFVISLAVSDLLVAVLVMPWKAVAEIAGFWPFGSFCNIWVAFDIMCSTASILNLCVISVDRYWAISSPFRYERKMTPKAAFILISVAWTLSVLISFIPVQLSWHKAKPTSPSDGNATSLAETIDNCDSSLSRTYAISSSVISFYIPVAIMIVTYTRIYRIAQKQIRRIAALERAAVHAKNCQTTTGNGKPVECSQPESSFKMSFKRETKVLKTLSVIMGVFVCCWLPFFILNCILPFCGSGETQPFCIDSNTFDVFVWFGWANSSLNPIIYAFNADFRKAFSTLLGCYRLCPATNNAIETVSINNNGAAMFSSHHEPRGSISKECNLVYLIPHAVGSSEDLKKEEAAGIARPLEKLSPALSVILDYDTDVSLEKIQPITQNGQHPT

IC50 Ratio 3A4-(MDZ) (CYP3A4 [1]; midazolam probe): 2.6 | IC50 Ratio 3A4-(TST) (CYP3A4 [1]; testosterone probe): 2.7 | pIC50 (CYP1A2): < 4.40 | IC50 Ratio 1A2 (CYP1A2; [10]): 1.0 | pIC50 (CYP1A2; read-out: IC50-30 min 1A2, HLM, 30 min preincubation with NADPH): < 4.40 | HLM TDI panel TDI ratio, others [2]: < 2 | B/P (Mouse brain Aβ42; 8 mpk): 0.7 | Compound concentration in the Mouse Aβ42 study (Mouse brain Aβ42; 8 mpk): 391 nM | B/P (Mouse brain Aβ42; 30 mpk): 1.4 | Compound concentration in the Mouse Aβ42 study (Mouse brain Aβ42; 30 mpk): 1334 nM | IC50 Ratio 2D6 (CYP2D6 [3]): 2.2 | pIC50 (CYP2C9 [4]): 5.89 | pIC50 (CYP2D6 [5]): 4.46 and 4.81 | IC50 Ratio 2C19 (CYP2C19; [10]): 1.9 | pIC50 (CYP2C19; IC50-0 min 2C19, HLM, 0 min preincubation): 4.65 | pIC50 (CYP2C19; IC50-30 min 2C19, HLM, 30 min preincubation with NADPH): 4.91 | apparent rates of inactivation (kobs) with midazolam (CYP3A4 [6]; [11]): < 0.003 min⁻¹ | apparent rates of inactivation (kobs) with testosterone (CYP3A4 [6]; [11]): < 0.006 min⁻¹ | pIC50 (CYP2C8; HLM, 0 min preincubation, read-out: IC50-0 min 2C8): 5.38 | IC50 Ratio 2C8 (CYP2C8; [10]): 1.9 | pIC50 (CYP2C8; IC50-30 min 2C8, HLM, 30 min preincubation with NADPH): 5.66 | pIC50 (CYP2D6 [7]): < 4.70 | pIC50 (CYP2C9 [8]; HLM, 0 min preincubation, read-out: IC50-0 min 2C9): 4.90 | IC50 Ratio 2C9 (CYP2C9 [8]; [10]): 1.4 | pIC50 (CYP2C9 [8]; IC50-30 min 2C9, HLM, 30 min preincubation with NADPH): 5.06 | pIC50 (CYP3A4 [9]): ~4.40 and 4.92 and 4.82 and 5.35 and ~4.92
SMILES: CNc1nc(Nc2ccc(-n3cnc(C)n3)c(OC(F)F)c2)nc2c1C(C)(C)CC2c1ccc(F)cc1 (single isomer, unassigned) [Enantiomer 1, N2-(3-(difluoromethoxy)-4-(3-methyl-1H-1,2,4-triazol-1-yl)phenyl)-7-(4-fluorophenyl)-N4,5,5-trimethyl-6,7-dihydro-5H-cyclopenta[d]pyrimidine-2,4-diamine]
pIC50 (dopamine receptor 1): 5.00 to 5.10 | Mouse Aβ42 (Mouse brain Aβ42; 8 mpk): 68% | Mouse Aβ42 (Mouse brain Aβ42; 30 mpk): 29% | pIC50 (dopamine transporter): 5.00 to 5.10 | KI; Kinact (CYP3A4 [6]; HLM CYP3A4 inactivation): Inactivation rates below the limit of reliable | mechanism-based inhibition of CYP3A4 (CYP3A4 [6]; HLM, midazolam and testosterone probes): not a mechanism-based inhibitor of CYP3A4
